Our source for the TGI and GI50 values is PubChem BioAssay (NCI).

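Growth conditions: 96-well plates. Treatment: test compound, 48 hours, 5 concentrations. Analysis: linear interpolation between bracketing concentrations; unreached endpoints set to highest concentration. GI50 = concentration required for 50% inhibition of growth. The concentration for full growth arrest is given as TGI.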

What all share (test): NCI anticancer screen, dose series, 48 h
The subject of assay [1] is DU-145 prostate.
Assay [2] has as its system HOP-92 NSCLC.
In assay [3] the test system is NCI-H23 lung.
Assay [4] concerns OVCAR-5 ovarian.
For assay [5], the system named is SF-268 CNS.
The subject of assay [6] is SK-MEL-2 melanoma.
Assay [7] deals with TK-10 renal.
The test system of assay [8] is UACC-257 melanoma.
For assay [9], the system named is UACC-62 melanoma.
The test system of assay [10] is SF-539 CNS.

With `NNC(=O)C(O)C(O)C(O)CO` (stereo unspecified), the TGI in assay [1], in assay [2], in assay [3], in [4], in [5] and in assay [6] was > 100 µM each time. Besides, the TGI in assay [7], in [8] and in assay [9] was > 100 µM each time.

Take `C[C@]12CC/C(=N\O)C[C@@H]1CC[C@@H]1[C@@H]2CC[C@]2(C)/C(=N/O)CC[C@@H]12`: the GI50 is 80.7 µM in [1]; > 100 µM in assay [2]; 45.6 µM in assay [3]; 46.1 µM in assay [4]; 37.9 µM in assay [10]; 32.9 µM in assay [6]. The results for the GI50 in assay [7], in assay [8] and in assay [9] were 32.1 µM, 37.6 µM and 35.6 µM, respectively. The TGI is > 100 µM in assay [1]; > 100 µM in assay [2]; 80.2 µM in assay [3]; > 100 µM in assay [4]; > 100 µM in [10]; 97 µM in [6]. In addition, the TGI in assay [7], in assay [8] and in [9] was > 100 µM each time.

In the case of `CC1=CC[C@@H]2[C@@H](CC[C@@]2(C)O)C(C)(C)[C@H]1CC[C@@H]1[C@@]2(C)CC[C@@H](O)C(C)(C)O[C@@H]2CC[C@]1(C)O`, the TGI in assay [1] was > 100 µM; in [2] it was 37.1 µM; in assay [3], 76.2 µM; in assay [4] it was > 100 µM; in [10], 44 µM; in [6], > 100 µM. In addition, the TGI in [7] is > 100 µM; in [8], 81 µM; in assay [9], 31.9 µM.

With `O=c1ncc(I)c[nH]1`, the GI50 in assay [1], in [2], in assay [3], in [4], in assay [5] and in assay [10] was > 100 µM each time. Further, the GI50 in assay [6], in [7], in assay [8] and in assay [9] was > 100 µM throughout. The TGI in [1], in assay [2], in assay [3], in assay [4], in assay [5] and in assay [10] was > 100 µM each time. Besides, the TGI in assay [6], in assay [7], in assay [8] and in assay [9] was > 100 µM in each case.

`CS(=O)(=O)c1nccc(-c2c(-c3cccc(OCc4ccccc4)c3)nc3sccn23)n1`: the GI50 was 1.76 µM in assay [1]; 6.38 µM in [2]; 12.8 µM in assay [3]; > 100 µM in assay [4]; 19.1 µM in assay [5]; > 60.4 µM in [10]. For the same compound, the GI50 is > 100 µM in assay [6], 53.2 µM in assay [7], 10.4 µM in assay [8] and 13.8 µM in assay [9]. Also, the TGI is 3.31 µM in assay [1]; > 100 µM in [2]; > 100 µM in assay [3]; > 100 µM in assay [4]; > 100 µM in assay [5]; > 100 µM in assay [10]. Moreover, the TGI is > 100 µM in assay [6], > 100 µM in assay [7], 32.5 µM in assay [8] and > 100 µM in assay [9].

Regarding `C[C@@]1([C@H](OC(=O)c2cccc3ccccc23)C(N)=O)CO1`, the GI50 in assay [1] was 1.61 µM; in assay [2], 2.81 µM; in [3], 1.23 µM; in assay [4], 3.95 µM; in assay [5], 4.62 µM; in assay [10] it was 0.642 µM. The GI50 was 1.12 µM in assay [6], 3.6 µM in [7], 4.65 µM in [8] and 0.452 µM in assay [9]. Besides, the TGI in assay [1] was 5.64 µM; in assay [2] it was 17.3 µM; in assay [3], 5.65 µM; in assay [4] it was 24.9 µM; in [5], > 43 µM; in assay [10], 2.33 µM. Moreover, the TGI in assay [6] was 7.09 µM; in [7], 14.8 µM; in assay [8] it was > 49 µM; in assay [9], 2.24 µM.

For the compound `CCC1CCC2C3CC=C4CC(OC(C)=O)C(N)CC4(C)C3CCC12C` (stereo unspecified), the TGI in [1] turned out to be 8.33 µM; in assay [2] it was 10.8 µM; in assay [3] it was 13.6 µM; in assay [4] it was 14.1 µM; in assay [5], 9.08 µM; in [10], 3.5 µM. The TGI worked out at 8.32 µM in [6], 6.1 µM in assay [7], 4.55 µM in assay [8] and 9.32 µM in [9].

As to `Cc1ccc(C(=O)Nc2ccc(CN3CCN(C)CC3)c(C(F)(F)F)c2)cc1C#Cc1cnc(N)c2ccc(C#N)cc12`, the GI50 in assay [1] is 0.0403 µM; in [2], 0.0134 µM; in [3] it was 1.1 µM; in assay [4], 5.85 µM; in [5], 0.206 µM; in assay [10] it was 3.52 µM. Moreover, the GI50 in assay [6] was 0.0327 µM; in assay [7], 0.625 µM; in [8], 0.332 µM; in [9], 0.0212 µM. The TGI in assay [1] was found to be 7.39 µM; in assay [2], 0.714 µM; in assay [3], 18.2 µM; in [4] it was 16.4 µM; in assay [5], 17.2 µM; in assay [10], 12.3 µM. Also, the TGI is 9.51 µM in assay [6], 5.75 µM in assay [7], > 35 µM in assay [8] and 3.64 µM in assay [9].

For `Cc1cc(C)nc(NS(=O)(=O)c2ccc(Nc3nc4nc(NCc5ccccc5)nc(-c5ccc(O)cc5)c4c(=O)[nH]3)cc2)n1`, the GI50 in assay [1] was 25.9 µM; in assay [2] it was 14.6 µM; in assay [3], 79.7 µM; in [4], > 100 µM; in [5] it was 18 µM; in assay [10], > 100 µM. In addition, the GI50 in [6] is 20.7 µM; in [7] it was 28 µM; in assay [9], 25.2 µM. The TGI is > 100 µM in assay [1]; 61.3 µM in [2]; > 100 µM in assay [3]; > 100 µM in assay [4]; > 100 µM in assay [5]; > 100 µM in assay [10]. Besides, the TGI in [6], in assay [7] and in assay [9] was > 100 µM throughout.

As to `Cc1cc(NCCCNc2ccnc3cc(Cl)ccc23)nc(Nc2ccc(C(=O)N3CCCCC3)cc2)n1`, the GI50 in assay [1] is 3.42 µM; in assay [3] it was 4.38 µM; in [4], 4.5 µM; in assay [5], 1.91 µM; in [10], 1.89 µM; in [6], 2.17 µM. Further, the GI50 in assay [7] was 1.99 µM; in assay [8] it was 2.39 µM; in [9], 2.02 µM. Moreover, the TGI was found to be 13.1 µM in assay [1]; 18.6 µM in assay [3]; 18.5 µM in assay [4]; 5.11 µM in [5]; 3.56 µM in assay [10]; 4.29 µM in assay [6]. Moreover, the TGI came out at 4.59 µM in assay [7], 4.56 µM in [8] and 3.81 µM in assay [9].

Turning to `Nc1ncnc2c1ncn2C1OC(CO)CC1O` (stereo unspecified), the TGI in assay [1], in assay [2], in assay [3], in [4], in assay [5] and in [10] was > 100 µM throughout. Moreover, the TGI in assay [7], in assay [8] and in [9] was > 100 µM each time.

As to `O=C1C2=C(C(=O)c3c(O)ccc(O)c31)N(c1cccnc1)Cc1ccccc1O2`, the GI50 in assay [1] is 0.351 µM; in [2], 0.207 µM; in assay [4], 0.564 µM; in assay [5] it was 0.65 µM; in assay [10], 0.378 µM; in [6], 1.54 µM. In addition, the GI50 in assay [7] was 0.27 µM; in [8], 0.399 µM; in assay [9], 0.183 µM. The TGI in assay [1] amounted to 1.17 µM; in assay [2] it was 0.459 µM; in assay [4] it was 1.8 µM; in assay [5], 2 µM; in [10], 1.36 µM; in assay [6], 4.78 µM. For the same compound, the TGI in assay [7] worked out at 0.983 µM; in assay [8] it was 1.39 µM; in [9], 0.396 µM.

For `COc1ccc(Nc2[nH]n(C3=Nc4ccccc4Sc4ccccc43)c(=O)c2C#N)cc1`, the GI50 in [1] was 2.83 µM; in assay [3] it was 0.637 µM; in [4], 10.8 µM; in assay [5] it was 2.37 µM; in [10] it was 3.37 µM; in assay [6], 1.74 µM. The results for the GI50 in assay [7], in assay [8] and in assay [9] were 3.81 µM, 1.13 µM and 1.21 µM, respectively. The TGI in assay [1] was 61.5 µM; in assay [3], 6.64 µM; in assay [4], > 100 µM; in assay [5], 34.3 µM; in [10] it was 40.9 µM; in assay [6], 5 µM. For the same compound, the results for the TGI in [7], in [8] and in assay [9] were 41 µM, 7.03 µM and 11 µM, respectively.

On to `COc1cc(/C=C/C(=O)c2ccc(F)cc2)ccc1OCCCCOc1cc2c(cc1OC)C(=O)N1CCCC1C=N2` (stereo unspecified), for which the GI50 is 0.994 µM in assay [1]; 1.47 µM in assay [3]; 3.85 µM in assay [4]; 1.03 µM in assay [5]; 0.641 µM in [10]; 1.33 µM in assay [6]. Moreover, the GI50 in [7] was 1.7 µM; in [9] it was 0.777 µM. Also, the TGI in assay [1] is 5.46 µM; in [2] it was 0.673 µM; in assay [3] it was > 23.5 µM; in assay [4], > 26.6 µM; in assay [5], 12.5 µM; in [10], 1.62 µM. The results for the TGI in assay [6], in assay [7] and in assay [9] were 12.8 µM, 23.2 µM and 11.4 µM, respectively.

As for `COc1cc(-c2nn(-c3ccc(NC(=O)Nc4ccc(Cl)c(C(F)(F)F)c4)cc3)cc2-c2ccncc2)ccc1Cl`, the GI50 is 2.47 µM in assay [1]; 1.82 µM in [2]; 1.98 µM in assay [3]; 1.94 µM in [4]; 1.93 µM in assay [5]; 1.76 µM in [10]. Besides, the GI50 in [7] is 3.06 µM; in assay [8], 1.64 µM; in assay [9], 1.77 µM. Further, the TGI in assay [1] was 7.52 µM; in assay [2], 5.85 µM; in assay [3], 5.79 µM; in assay [4], 5.68 µM; in [5] it was 5.01 µM; in [10], 3.98 µM. The TGI was found to be 13.2 µM in [7], 3.69 µM in [8] and 3.75 µM in assay [9].

For `Cc1c(C)n(CC(O)CNC2CCCCC2C)c2ccccc12` (stereo unspecified), the GI50 in [1] was 17.8 µM; in [2], 4.76 µM; in assay [3], 16.8 µM; in assay [4], 12.9 µM; in assay [5], 15.4 µM; in [10] it was 15.8 µM. Also, the GI50 in assay [8] was 16.2 µM; in [9], 14.8 µM. Also, the TGI stood at 31.6 µM in assay [1]; 17.8 µM in [2]; 32.8 µM in [3]; 25.7 µM in assay [4]; 30.2 µM in [5]; 30.4 µM in assay [10]. Besides, the figures for the TGI in [8] and in assay [9] were 31 µM and 29 µM, respectively.

In the case of `Nc1nc2ccccc2c2[nH]c3ccccc3c12`, the GI50 in [1] was 1.94 µM; in assay [3], 1.37 µM; in [4], 1.84 µM; in [5], 1.97 µM; in assay [10], 1.76 µM; in assay [6], 1.54 µM. Further, the GI50 is 1.57 µM in assay [7], 1.64 µM in assay [8] and 13.6 µM in assay [9]. Moreover, the TGI in assay [1] worked out at 10.5 µM; in assay [3] it was 2.86 µM; in [4], 4.11 µM; in [5] it was 7.23 µM; in assay [10], 3.37 µM; in assay [6] it was 2.88 µM. The TGI was found to be 4.18 µM in [7], 2.99 µM in assay [8] and 27.3 µM in assay [9].
